Molecules are shown by their SMILES. Structures can show the parent of a compound that is named as a salt.

In the test the target is human CXCR3-A receptor (Homo sapiens (Human), UniProt P49682). Description: 125I-CXCL10 competition radioligand binding assay.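 Note: One-hour incubation of membranes with tracer, bound radioligand separated by glass fibre filtration, IC50 derived from four-parameter nonlinear fit of competition curves.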 As to conditions: displacement of 125I-CXCL10 from membranes of CHO cells expressing human recombinant CXCR3-A. (In general: In a radioligand displacement assay an active substance lowers the binding of a labelled ligand.)
Sequence of human CXCR3-A receptor (P49682 whole entry): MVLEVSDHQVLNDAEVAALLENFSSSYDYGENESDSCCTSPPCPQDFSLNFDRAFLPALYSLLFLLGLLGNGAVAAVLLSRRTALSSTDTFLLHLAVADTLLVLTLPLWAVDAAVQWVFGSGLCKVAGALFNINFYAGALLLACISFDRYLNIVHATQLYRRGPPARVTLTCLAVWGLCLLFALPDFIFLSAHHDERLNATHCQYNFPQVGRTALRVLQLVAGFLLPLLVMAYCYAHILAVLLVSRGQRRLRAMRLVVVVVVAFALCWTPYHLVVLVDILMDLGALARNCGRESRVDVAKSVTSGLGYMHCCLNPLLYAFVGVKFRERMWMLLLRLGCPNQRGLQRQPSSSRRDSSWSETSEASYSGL
For orientation: IC50 means the midpoint of a concentration-inhibition curve. Consider `COc1cc(CN(CC2CC2)[C@@H](C(=O)O)c2ccc(Cl)c(Cl)c2)ccc1OCCN1C(=O)CCC1=O` [Example 111, (R)-(Cyclopropylmethyl-{4-[2-(2,5-dioxo-pyrrolidin-1-yl)-ethoxy]-3-methoxy-benzyl}-amino)-(3,4-dichloro-phenyl)-acetic acid], for which the IC50 worked out at 420 nM. With `Cc1cc(CN(CC2CCCCC2)C(CC(=O)O)c2ccc(Cl)c(Cl)c2)ccc1OCCN1C(=O)CCC1=O` (stereo not shown) [Example 83, 3-(Cyclohexylmethyl-{4-[2-(2,5-dioxo-pyrrolidin-1-yl)-ethoxy]-3-methyl-benzyl}-amino)-3-(3,4-dichloro-phenyl)-propionic acid] the figure was 302 nM; with `CCCCN(Cc1ccc(OCCN2C(=O)CCC2=O)c(F)c1)C(CC(=O)O)c1ccc(Cl)c(F)c1` (stereo not shown) [Example 59, 3-(Butyl-{4-[2-(2,5-dioxo-pyrrolidin-1-yl)-ethoxy]-3-fluoro-benzyl}-amino)-3-(4-chloro-3-fluoro-phenyl)-propionic acid], 109 nM. With `CCCN(Cc1ccc(OCCN2C(=O)CCC2=O)c(OC)c1)C(CC(=O)O)c1ccc(Cl)c(Cl)c1` (stereo not shown) [Example 46, 3-(3,4-Dichloro-phenyl)-3-({4-[2-(2,5-dioxo-pyrrolidin-1-yl)-ethoxy]-3-methoxy-benzyl}-propyl-amino)-propionic acid] the figure was 118 nM; with `O=C(O)CC(c1ccc(Cl)c(F)c1)N(Cc1ccc(OCCN2C(=O)CCC2=O)c(F)c1)CC1CCCCC1` (stereo not shown) [Example 61, 3-(4-Chloro-3-fluoro-phenyl)-3-(cyclohexylmethyl-{4-[2-(2,5-dioxo-pyrrolidin-1-yl)-ethoxy]-3-fluoro-benzyl}-amino)-propionic acid], 334 nM. As for `CCCN(Cc1ccc(OCCN2C(=O)CCC2=O)c(F)c1)C(CC(=O)O)c1ccc(Cl)c(F)c1` (stereo not shown) [Example 58, 3-(4-Chloro-3-fluoro-phenyl)-3-({4-[2-(2,5-dioxo-pyrrolidin-1-yl)-ethoxy]-3-fluoro-benzyl}-propyl-amino)-propionic acid], the IC50 came to 183 nM. In the case of `Cc1cc(CN(CCC(F)(F)F)C(CC(=O)O)c2ccc(Cl)cc2)ccc1OCCn1c(=O)ccn(C)c1=O` (stereo not shown) [Example 129, 3-(4-Chloro-phenyl)-3-[{3-methyl-4-[2-(3-methyl-2,6-dioxo-3,6-dihydro-2H-pyrimidin-1-yl)-ethoxy]-benzyl}-(3,3,3-trifluoro-propyl)-amino]-propionic acid] it was 2150 nM. In the case of `COc1cc(CN(CC(C)C)[C@@H](C(=O)O)c2ccc(Cl)c(Cl)c2)ccc1OCCN1C(=O)CCC1=O` [Example 110, (R)-(3,4-Dichloro-phenyl)-({4-[2-(2,5-dioxo-pyrrolidin-1-yl)-ethoxy]-3-methoxy-benzyl}-isobutyl-amino)-acetic acid] it was 786 nM. With `CCc1cc(CN(CC2CCCCC2)C(CC(=O)O)c2ccc(Cl)cc2)ccc1OCCN1C(=O)CCC1=O` (stereo not shown) [Example 89, 3-(4-Chloro-phenyl)-3-(cyclohexylmethyl-{4-[2-(2,5-dioxo-pyrrolidin-1-yl)-ethoxy]-3-ethyl-benzyl}-amino)-propionic acid] the figure was 51 nM; with `CCCN(Cc1ccc(OCCN2C(=O)CCC2=O)c(F)c1)C(CC(=O)O)c1ccc(Cl)c(Cl)c1` (stereo not shown) [Example 62, 3-(3,4-Dichloro-phenyl)-3-({4-[2-(2,5-dioxo-pyrrolidin-1-yl)-ethoxy]-3-fluoro-benzyl}-propyl-amino)-propionic acid], 503 nM. On to `CCCN(Cc1ccc(OCCn2c(=O)ccn(C)c2=O)c(OC)c1)C(CC(=O)O)c1ccc(Cl)c(Cl)c1` (stereo not shown) [Example 125, 3-(3,4-Dichloro-phenyl)-3-({3-methoxy-4-[2-(3-methyl-2,6-dioxo-3,6-dihydro-2H-pyrimidin-1-yl)-ethoxy]-benzyl}-propyl-amino)-propionic acid], for which the 50% inhibitory concentration (IC50) is 72 nM.

`O=C(O)CC(c1ccc(Cl)cc1)N(Cc1ccc(OCCN2C(=O)CCC2=O)c(F)c1)CC1CCCC1` (stereo not shown) [Example 56, 3-(4-Chloro-phenyl)-3-(cyclopentylmethyl-{4-[2-(2,5-dioxo-pyrrolidin-1-yl)-ethoxy]-3-fluoro-benzyl}-amino)-propionic acid]: the IC50 is 52 nM. With `CC(C)CN(Cc1ccc(OCCN2C(=O)CCC2=O)c(F)c1)[C@@H](CC(=O)O)c1ccc(Cl)c(F)c1` [Example 21, (S)-3-(4-Chloro-3-fluoro-phenyl)-3-({4-[2-(2,5-dioxo-pyrrolidin-1-yl)-ethoxy]-3-fluoro-benzyl}-isobutyl-amino)-propionic acid; hydrochloride], the IC50 is 66 nM.

Take `CCCCN(Cc1ccc(OCCN2C(=O)CCC2=O)c(OC)c1)C(CC(=O)O)c1ccc(Cl)c(Cl)c1` (stereo not shown) [Example 48, 3-(Butyl-{4-[2-(2,5-dioxo-pyrrolidin-1-yl)-ethoxy]-3-methoxy-benzyl}-amino)-3-(3,4-dichloro-phenyl)-propionic acid]: the IC50 was 61 nM. In the case of `CCc1cc(CN(CC(C)C)C(CC(=O)O)c2ccc(Cl)cc2)ccc1OCCN1C(=O)CCC1=O` (stereo not shown) [Example 86, 3-(4-Chloro-phenyl)-3-({4-[2-(2,5-dioxo-pyrrolidin-1-yl)-ethoxy]-3-ethyl-benzyl}-isobutyl-amino)-propionic acid] it was 12 nM; in that of `O=C(O)CC(c1ccc(Cl)cc1)N(Cc1ccc(OCCN2C(=O)CCC2=O)c(Cl)c1)CC1CC1` (stereo not shown) [Example 102, 3-({3-Chloro-4-[2-(2,5-dioxo-pyrrolidin-1-yl)-ethoxy]-benzyl}-cyclopropylmethyl-amino)-3-(4-chloro-phenyl)-propionic acid; hydrochloride], 83 nM; in that of `Cc1cc(CN(CC2CCCCC2)[C@@H](CC(=O)O)c2ccc(Cl)c(F)c2)ccc1OCCN1C(=O)CN(C)C1=O` [Example 34, (S)-3-(4-Chloro-3-fluoro-phenyl)-3-(cyclohexylmethyl-{3-methyl-4-[2-(3-methyl-2,5-dioxo-imidazolidin-1-yl)-ethoxy]-benzyl}-amino)-propionic acid], 83 nM.

For the compound `COc1cc(CN(CC2CC2)C(CC(=O)O)c2ccc(Cl)cc2)ccc1CCCN1C(=O)CCC1=O` (stereo not shown) [Example 132, 3-(4-Chloro-phenyl)-3-(cyclopropylmethyl-{4-[3-(2,5-dioxo-pyrrolidin-1-yl)-propyl]-3-methoxy-benzyl}-amino)-propionic acid], the half-maximal inhibitory concentration (IC50) was 192 nM.

Turning to `CCN(Cc1ccc(OCCn2c(=O)ccn(C)c2=O)c(C)c1)C(CC(=O)O)c1ccc2c(c1)CCO2` (stereo not shown) [Example 154, 3-(2,3-Dihydro-benzofuran-5-yl)-3-(ethyl-{3-methyl-4-[2-(3-methyl-2,6-dioxo-3,6-dihydro-2H-pyrimidin-1-yl)-ethoxy]-benzyl}-amino)-propionic acid], the IC50 came to 58 nM.

The values above are taken from patent US9447038B2 (SANOFI, priority 2012, dated 2016).
